The values below come from paper PMC10892288, “Early Stage Preclinical Formulation Strategies to Alter the Pharmacokinetic Profile of Two Small Molecule Therapeutics” (Pharmaceuticals, 2024).

A short description of data set [1]: Log P (physiochemical properties). It counts as physicochemical.
Data set [2] in a line: Mouse PK of G6893, PO in MCT vehicle. It counts as in vivo, female C57BL-6 mice. Conditions: female, C57BL-6, plasma, 30 mg/kg, PO 30 mpk, MCT vehicle pH 2.5, mouse. As for the experimental part: A total of 0.6% w/v Methylcellulose, 0.2% w/v Tween 80 in water (MCT) was prepared by slowly adding Methylcellulose (Methylocel A15 LV; CAS 9004-67-5, Part ID: 64605-500G-F 27.5-31.5% Methoxyl basis, Sigma-Aldrich, St. Louis, MO, USA) in small portions to prevent clumping while stirring into water at 70–80 °C. Once a homogeneous suspension formed, Tween 80 (Polysorbate 80; CAS#9005-65-6 (Polyoxyethylene (20) Sorbitan Monooleate; Tween 80) Part ID: PO138, Spectrum Chemical, New Brunswick, NJ, USA) was added and stirred until fully dissolved. Vehicle was filtered through 0.22 µm PES (Corning REF no. 431098) prior to adding to the compound for dosing. Respective compound was added based on the target concentration to the MCT vehicle and stirred at 35 °C until the power was well-dispersed. Formulations were homogenized through a polytron homogenizer and then sonicated in a water bath sonicator until a homogeneous suspension was achieved.
The pharmacokinetics of G7883 were determined in female CD-1 mice obtained from Charles River Laboratories (Hollister, CA, USA) with a body weight ranging from 20 to 25 g. The pharmacokinetics of G6893 were determined in female C57BL-6 mice (Lingchang/Vital River Laboratory Animal Co., Ltd., Shanghai/Beijing, China) with a body weight ranging from 20 to 35 g. Three mice were given an oral dose of G7883 formulated in 0.6% Methylcellulose, 0.2% Tween80 in water (MCT) at 25 mg/kg and 250 mg/kg with a dosing volume of 10 mL/kg. Food and water were available ad libitum to the animals. Three mice were given an oral dose of G6893 formulated in 0.6% methylcellulose; 0.2% Tween80 in water with pH adjusted to 2.5 at 30 mg/kg and a dose volume of 5 mL/kg. For both compounds, G7883 and G6893, 15 µL of blood was collected serially at 0. 25, 0.5, 1, 2, 4, 6, 8, and 24 h post-dose and diluted in 60 µL of 1.7 mg/mL potassium K2EDTA water. The frozen blood samples were stored at −70 °C or lower until analysis.
All plasma and cell media concentrations of G7883 and G6893 were determined using liquid chromatography–tandem mass spectrometry after protein precipitation with acetonitrile and injection of the supernatant onto the column (Waters ACQUITY UPLC BEH C18 1.7 μm, 2.1 × 50 mm for G7883 and G6893). The aqueous mobile phase was 0.1% formic acid, 2 mM ammonium formate in water/acetonitrile (v:v, 95:5), and the organic mobile phase was 0.1% formic acid, 2 mM ammonium formate in acetonitrile/water (v:v, 95:5). An AB Sciex API 4000 Triple Quad instrument was used for detecting G7883 and G6893 (Figure S2). The electrospray ionization source in both columns was operated in the positive ion and multiple reaction monitoring (MRM) detection modes. The MRM transitions for G7883 and G6893 were m/z 462.2 (Q1) and 253.10 (Q3) and m/z 454.2 (Q1) and 325.9 (Q3), respectively. The dynamic range of both assays was 0.50–50.0 ng/mL, and the total run time was 1.6 min. The lower limit of quantitation of the assay was […], and the dilution quality control concentration was set at 10 ng/mL with acceptance criteria for accuracy and precision of 25%.

A further data set concerns the target HPK1 (Homo sapiens, UniProt Q92918). The data set is described as follows: Potency (IC50) of HPK1 inhibitor.
Data set [3] can be described thus: pKa (physiochemical properties). The format is physicochemical. From the text:
Table 1 Physiochemical properties of […] and […]. | column: […]; […]

Data set [4] is described as follows: Permeability (physiochemical properties). The format is in vitro ADME.
Data set [5] can be described thus: Mouse IV infusion of G6893 by iPRECIO pump. It counts as in vivo, female C57BL-6 mice. Conditions: 0.5 mg/kg/h, 2.5 mg/mL in 100% PEG400, over 96 h. The text has this:
This is often a concern for molecules in early drug discovery stages. Various formulation and delivery strategies have been devised to modify the systemic PK profiles of drug molecules, encompassing nanoparticles, microparticles, lipid and polymer conjugation, implanted infusion pump device technologies, and subcutaneous depots. Here, we examined two strategies aimed at maintaining the drug concentration at a designed target concentration for the maximum duration potentially needed for proof of concept studies. The initial approach involved using an implantable device, the iPRECIO pump that allows for a controlled and sustained infusion, as opposed to a typical bolus IV injection. The infusion pump strategies can be a promising tool to achieve the desired delivery profile of a compound, given the solubility requirements based on the intended target release and PK profile. […]
All plasma and cell media concentrations of G7883 and G6893 were determined using liquid chromatography–tandem mass spectrometry after protein precipitation with acetonitrile and injection of the supernatant onto the column (Waters ACQUITY UPLC BEH C18 1.7 μm, 2.1 × 50 mm for G7883 and G6893). […] The lower limit of quantitation of the assay was 5.1 ng/mL, and the dilution quality control concentration was set at 10 ng/mL with acceptance criteria for accuracy and precision of 25%.

Data set [6] in a line: Water solubility (physiochemical properties). The format is physicochemical.
The nature of data set [7]: Vehicle screening for solution or suspension formulations. Particulars: 100% PEG400. The format is physicochemical. As for the experimental part: Based on the target concentration, G7883 was screened at 3.3 mg/mL in three different vehicles of 100%PEG400, 10%DMSO in 90%PEG400, and 20%DMSO in 80%PEG400 to generate a stable solution. […] A total of 50% DMSO is the maximum amount compatible with the iPRECIO pump system. Based on the target concentration, G6893 was screened at 5 mg/mL in four different vehicles as follows: 100% PEG400, 20% DMSO in 80% PEG400, 20% DMA and 40% PG in 40% PEG400, and 10% EtOH and 20% HPbCD in 70% water at pH 4.5. G6893 achieved a solution at the target concentration of 5 mg/mL in 100% PEG400 and maintained a solution without precipitation after dilution in PBS buffer.
G7883 was screened in different oil vehicles including corn, coconut, paraffin, soybean, and sunflower oil.

Structures are written as SMILES.

Sequence of HPK1 (Q92918 whole entry, species assumed): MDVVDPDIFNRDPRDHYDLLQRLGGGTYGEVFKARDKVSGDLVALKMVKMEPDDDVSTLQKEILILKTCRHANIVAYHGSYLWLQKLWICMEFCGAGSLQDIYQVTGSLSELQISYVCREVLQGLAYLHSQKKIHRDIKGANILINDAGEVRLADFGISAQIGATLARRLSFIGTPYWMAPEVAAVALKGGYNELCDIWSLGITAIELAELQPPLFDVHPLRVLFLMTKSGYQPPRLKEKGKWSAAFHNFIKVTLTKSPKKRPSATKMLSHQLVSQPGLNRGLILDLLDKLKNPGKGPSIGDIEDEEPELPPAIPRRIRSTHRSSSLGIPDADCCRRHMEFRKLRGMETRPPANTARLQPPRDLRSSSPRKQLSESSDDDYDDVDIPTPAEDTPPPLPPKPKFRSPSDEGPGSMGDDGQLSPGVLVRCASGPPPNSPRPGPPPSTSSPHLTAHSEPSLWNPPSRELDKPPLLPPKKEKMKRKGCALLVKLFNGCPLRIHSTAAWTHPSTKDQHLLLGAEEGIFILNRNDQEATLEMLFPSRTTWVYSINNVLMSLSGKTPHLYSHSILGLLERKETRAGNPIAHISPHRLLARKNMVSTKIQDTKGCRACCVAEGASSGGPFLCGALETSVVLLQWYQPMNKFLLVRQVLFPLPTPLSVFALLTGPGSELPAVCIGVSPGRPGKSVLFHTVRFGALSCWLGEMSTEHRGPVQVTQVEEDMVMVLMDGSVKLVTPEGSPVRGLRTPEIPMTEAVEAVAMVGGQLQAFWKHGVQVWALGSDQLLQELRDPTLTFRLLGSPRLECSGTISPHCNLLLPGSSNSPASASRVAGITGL

For `Cc1c(-c2cc3cc(NC(=O)O[C@H]4COC[C@@H]4C)ncc3c(N)c2F)cnc2c1NCCO2` (racemic) [G6893, [rac-(3R,4S)-4-methyltetra hydrofuran-3-yl]N-[8-amino-7-fluoro-6-(8-methyl-2,3-dihydro-1H-pyrido[2,3-b][1,4]oxazin-7-yl)-3-isoquinolyl]carbamate], in data set [1], the logP worked out at 2.69. Besides, in data set [2] (mean ± SD), the concentration peaked (Cmax) at 3.8 ± 1.68 µM, the time to peak (Tmax) stood at 0.667 ± 0.289 h, the bioavailability is 45.5 ± 14% and the half-life is 3.07 ± 1.92 h. In addition, the AUC(0-t) in data set [2] (read-out: AUC0 to 8) was determined as 19.5 µM·h. Moreover, the concentration for half-maximal inhibition (IC50) against HPK1 is 560 nM. Further, the pKa in data set [3] was found to be 2.53. Further, in data set [4], the “permeability (in words)” value is “high permeability”. This molecule displayed a Papp in data set [4] (not told) of 15 ×10⁻⁶ cm/s. Moreover, the “plasma concentration relative to target concentration (IC50)” value in data set [5] is on record as “successfully maintained the target concentration profile”. The “solubility (in words)” value in data set [6] is on record as “low solubility”. The solubility in data set [6] (water) is below 1 µg/mL. The “concentration at which a solution was achieved” value in data set [7] was at least 5000 µg/mL.
